The values below are quoted from earlier work in patent publication US12454515B2, “2-aminoindane compounds for mental disorders or enhancement” (Tactogen Inc, priority 2020, dated 2025).

The series concerns neuritogenesis. The note with it: literature value.

In general, EC50 refers to the midpoint of the concentration-response curve. In the case of `CNC(C)Cc1ccc2c(c1)OCO2` (centres unmarked) [MDMA], for the setting “Ly et al. Cell reports 23 (2018) Figure S3, read-out: EC50 for promoting neuritogenesis”, the EC50 was 7.41 nM. For the same molecule, where the note is “relative to ketamine, Ly et al. 2018”, the “Emax for promoting neuritogenesis” value was “approximately twice that of ketamine”.
